Experimental data taken from US9938261B2, “Heterocyclic compounds and methods of use thereof” (AMBIT BIOSCIENCES CORPORATION, priority 2011, dated 2018).
Read-outs that look alike come from different tables or passages of the source.

Experiments:
[1] = test system: M-NFS-60 cells; assay: M-NFS-60 cell proliferation assay (Alamar Blue); assay type: cell-based, mouse; conditions: Mus musculus, read-out: CSF1R M-NFS-60 CTB:IC50
Outline: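 Mouse M-NFS-60 cells growing on 20 ng/mL M-CSF in RPMI/10% FBS were exposed to compounds (9 half-log concentrations, 0.5% DMSO) for 72 h at 37 °C. Viability read by Alamar Blue fluorescence (ex 560/em 590 nm, 3 h). IC50 = 50% proliferation inhibition versus control, mean of duplicates.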

[2] = biological target: CSF1R (Homo sapiens, UniProt P07333); assay: Competition binding assay, CSF1R Kd; design: made in house
Outline: (§1)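 Compound displacement of kinase from bead-immobilized ligand is measured by qPCR after 1 h equilibration at room temperature. Kinases are T7 phage fusions or DNA-tagged HEK-293 products.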

[3] = biological target: kinase panel containing either 386 or 392 distinct kinases; assay: Kinase selectivity score S10 from competition binding panel
Outline: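 Compounds at 10 μM competed against immobilised affinity ligands for T7 phage-fused or HEK-293-expressed DNA-tagged kinases, 1 h at room temperature; bound kinase eluted and quantified by qPCR. S10 = fraction of distinct non-mutant kinases with percent of DMSO control below 10.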

[4] = biological target: T1, KIT (Homo sapiens, UniProt P10721); assay: Competition binding assay, KIT Kd
T1 construct: made in house
Outline: as §1

[5] = biological target: T2, PDGFRβ (Homo sapiens, UniProt P09619); assay: Competition binding assay, PDGFRβ Kd
T2 construct: made in house
Outline: as §1

[6] = 72 hours incubation, M-CSF 20 ng/mL
[7] = compounds at 10 μM, 386 or 392 distinct kinases
[8] = 10 μM, panel of 386 or 392 distinct kinases

T1 sequence (P10721 26-976): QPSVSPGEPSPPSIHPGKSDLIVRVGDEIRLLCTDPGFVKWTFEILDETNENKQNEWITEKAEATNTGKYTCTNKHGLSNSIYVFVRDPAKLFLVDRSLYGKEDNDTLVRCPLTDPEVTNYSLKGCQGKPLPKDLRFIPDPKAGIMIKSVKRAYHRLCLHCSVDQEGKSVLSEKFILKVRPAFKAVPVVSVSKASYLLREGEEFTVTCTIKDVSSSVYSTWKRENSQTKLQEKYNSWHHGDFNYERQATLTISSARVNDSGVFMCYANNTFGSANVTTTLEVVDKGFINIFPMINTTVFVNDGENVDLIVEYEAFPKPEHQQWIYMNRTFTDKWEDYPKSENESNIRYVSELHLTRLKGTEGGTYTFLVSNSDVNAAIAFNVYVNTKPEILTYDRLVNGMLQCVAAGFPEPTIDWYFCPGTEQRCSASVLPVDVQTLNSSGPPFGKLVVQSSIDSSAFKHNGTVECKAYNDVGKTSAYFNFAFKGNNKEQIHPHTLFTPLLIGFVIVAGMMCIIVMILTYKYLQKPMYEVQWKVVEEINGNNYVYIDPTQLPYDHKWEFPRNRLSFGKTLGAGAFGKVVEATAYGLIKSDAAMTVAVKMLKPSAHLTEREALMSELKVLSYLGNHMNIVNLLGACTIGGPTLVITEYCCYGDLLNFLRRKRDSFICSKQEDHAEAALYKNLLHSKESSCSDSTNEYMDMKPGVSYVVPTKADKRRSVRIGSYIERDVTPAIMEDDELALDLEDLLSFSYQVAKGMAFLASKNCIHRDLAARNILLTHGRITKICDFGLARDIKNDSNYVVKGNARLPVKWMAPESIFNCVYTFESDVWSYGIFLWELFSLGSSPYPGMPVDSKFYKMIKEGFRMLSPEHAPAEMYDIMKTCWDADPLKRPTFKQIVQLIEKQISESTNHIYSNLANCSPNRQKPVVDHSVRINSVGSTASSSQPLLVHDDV
CSF1R, sequence (P07333 20-972): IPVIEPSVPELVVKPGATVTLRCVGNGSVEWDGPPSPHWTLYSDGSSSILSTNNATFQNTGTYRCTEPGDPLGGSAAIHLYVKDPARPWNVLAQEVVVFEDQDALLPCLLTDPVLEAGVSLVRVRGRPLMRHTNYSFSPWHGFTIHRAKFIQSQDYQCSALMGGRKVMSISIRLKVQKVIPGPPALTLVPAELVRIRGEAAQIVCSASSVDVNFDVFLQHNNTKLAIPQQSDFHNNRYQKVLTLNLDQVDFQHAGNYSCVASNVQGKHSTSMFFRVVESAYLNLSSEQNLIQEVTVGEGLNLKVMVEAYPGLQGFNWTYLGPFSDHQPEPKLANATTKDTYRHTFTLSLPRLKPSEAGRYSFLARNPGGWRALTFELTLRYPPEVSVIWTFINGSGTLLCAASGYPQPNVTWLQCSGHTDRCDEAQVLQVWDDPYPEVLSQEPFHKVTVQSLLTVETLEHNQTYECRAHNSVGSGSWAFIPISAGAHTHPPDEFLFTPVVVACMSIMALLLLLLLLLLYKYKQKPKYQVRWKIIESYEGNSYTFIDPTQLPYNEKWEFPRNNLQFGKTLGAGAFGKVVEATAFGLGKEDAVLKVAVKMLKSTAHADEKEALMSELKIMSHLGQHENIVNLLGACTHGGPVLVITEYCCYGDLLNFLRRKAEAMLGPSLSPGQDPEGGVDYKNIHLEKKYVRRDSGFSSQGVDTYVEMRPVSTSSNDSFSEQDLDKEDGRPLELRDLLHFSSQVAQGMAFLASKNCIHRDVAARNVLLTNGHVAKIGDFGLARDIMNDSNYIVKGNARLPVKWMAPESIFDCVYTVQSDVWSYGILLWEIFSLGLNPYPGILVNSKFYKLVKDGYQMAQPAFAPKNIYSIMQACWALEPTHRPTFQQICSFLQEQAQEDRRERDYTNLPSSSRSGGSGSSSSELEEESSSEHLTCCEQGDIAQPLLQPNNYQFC
T2 sequence (P09619 33-1106): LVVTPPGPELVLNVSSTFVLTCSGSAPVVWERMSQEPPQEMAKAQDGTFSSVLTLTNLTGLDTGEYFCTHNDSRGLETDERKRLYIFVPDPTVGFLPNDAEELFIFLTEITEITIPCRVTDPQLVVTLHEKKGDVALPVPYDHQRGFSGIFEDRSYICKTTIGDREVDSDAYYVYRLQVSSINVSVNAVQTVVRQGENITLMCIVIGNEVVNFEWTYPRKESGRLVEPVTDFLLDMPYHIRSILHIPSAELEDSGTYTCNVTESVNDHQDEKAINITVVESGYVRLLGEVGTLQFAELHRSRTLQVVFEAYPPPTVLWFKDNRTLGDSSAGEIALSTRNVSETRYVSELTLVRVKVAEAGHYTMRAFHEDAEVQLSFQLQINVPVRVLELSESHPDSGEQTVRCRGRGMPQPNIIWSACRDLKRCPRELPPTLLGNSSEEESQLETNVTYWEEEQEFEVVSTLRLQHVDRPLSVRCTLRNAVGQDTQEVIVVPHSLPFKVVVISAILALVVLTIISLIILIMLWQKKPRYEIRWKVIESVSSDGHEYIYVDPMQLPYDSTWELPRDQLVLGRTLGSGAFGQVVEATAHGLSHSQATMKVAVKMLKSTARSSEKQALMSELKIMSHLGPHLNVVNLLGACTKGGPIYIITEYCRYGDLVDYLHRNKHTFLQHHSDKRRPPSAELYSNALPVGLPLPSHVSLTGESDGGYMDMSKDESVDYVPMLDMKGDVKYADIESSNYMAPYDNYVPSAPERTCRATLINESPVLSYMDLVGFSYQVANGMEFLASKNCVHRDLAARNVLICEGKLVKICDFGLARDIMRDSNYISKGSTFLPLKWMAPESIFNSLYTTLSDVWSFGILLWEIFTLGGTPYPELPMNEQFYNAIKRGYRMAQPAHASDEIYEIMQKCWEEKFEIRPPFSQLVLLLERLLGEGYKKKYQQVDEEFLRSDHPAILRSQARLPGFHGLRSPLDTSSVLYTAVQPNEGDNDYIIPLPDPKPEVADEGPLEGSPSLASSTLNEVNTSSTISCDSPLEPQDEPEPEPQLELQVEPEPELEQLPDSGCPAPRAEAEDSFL

Row | SMILES | IC50 [1, 6] | Kd [2] | Kinase specificity S(10) [3, 7] | Kd [4] | Kd [5] | IC50 ([1]; M-NFS-60 cell proliferation) | Kd ([2]; competition binding) | Kinase specificity S(10) [3, 8] | Kd ([4]; competition binding) | Kd ([5]; competition binding)
1 | CC(=O)NCc1cnc2c(c1)ncn2Cc1ccc2nc(N[C@@H]3CCCC[C@H]3O)sc2c1 [Example 99, N-((3-((2-(((1R,2R)-2-hydroxycyclohexyl)amino)benzo[d]thiazol-6-yl)methyl)-3H-imidazo[4,5-b]pyridin-6-yl)methyl)acetamide] | > 1500 nM | > 50 nM | A (A≤0.01) | > 2000 nM | 500 to 2000 nM |  |  |  |  | 
2 | O[C@@H]1CCCC[C@H]1Nc1nc2ccc(Cn3cnc4cc(Br)ccc43)cc2s1 [Example 100, (1R,2R)-2-((6-((5-bromo-1H-benzo[d]imidazol-1-yl)methyl)benzo[d]thiazol-2-yl)amino)cyclohexanol] | 50 to 400 nM | 5 to 20 nM | A (A≤0.01) | 100 to 500 nM | 50 to 500 nM |  |  |  |  | 
3 | CC(=O)Nc1cn(Cc2ccc3nc(N[C@@H]4CCCC[C@H]4O)sc3c2)cn1 [Example 101, N-(1-((2-(((1R,2R)-2-hydroxycyclohexyl)amino)benzo[d]thiazol-6-yl)methyl)-1H-imidazol-4-yl)acetamide] | 50 to 400 nM | 20 to 50 nM | B (0.01<B≤0.02) | 500 to 2000 nM | 50 to 500 nM |  |  |  |  | 
4 | CCc1cnc2c(c1)ncn2Cc1ccc2nc(N[C@@H]3CCCC[C@H]3O)sc2c1 [Example 102, (1R,2R)-2-((6-((6-ethyl-3H-imidazo[4,5-b]pyridin-3-yl)methyl)benzo[d]thiazol-2-yl)amino)cyclohexanol] | ≤ 50 nM | 5 to 20 nM | B (0.01<B≤0.02) | ≤ 100 nM | ≤ 50 nM |  |  |  |  | 
5 | CS(=O)(=O)c1ccc2ncn(Cc3ccc4nc(N[C@@H]5CCCC[C@H]5O)sc4c3)c2n1 [Example 106, (1R,2R)-2-((6-((5-(methylsulfonyl)-3H-imidazo[4,5-b]pyridin-3-yl)methyl)benzo[d]thiazol-2-yl)amino)cyclohexanol] |  |  |  |  |  | > 1500 nM | 20 to 50 nM | A (A≤0.01) | 500 to 2000 nM | 500 to 2000 nM
6 | O[C@@H]1CCCC[C@H]1Nc1nc2ccc(Cn3cnc4ccc(Br)cc43)cc2s1 [Example 107, (1R,2R)-2-((6-((6-bromo-1H-benzo[d]imidazol-1-yl)methyl)benzo[d]thiazol-2-yl)amino)cyclohexanol] |  |  |  |  |  | 50 to 400 nM | 5 to 20 nM | B (0.01<B≤0.02) | 100 to 500 nM | 50 to 500 nM
7 | N#CCOc1ccc2c(c1)ncn2Cc1ccc2nc(N[C@@H]3CCCC[C@H]3O)sc2c1 [Example 196, 2-((1-((2-(((1R,2R)-2-hydroxycyclohexyl)amino)benzo[d]thiazol-6-yl)methyl)-1H-benzo[d]imidazol-5-yl)oxy)acetonitrile] |  |  |  |  |  | 50 to 400 nM | ≤ 5 nM | A (A≤0.01) | 100 to 500 nM | 50 to 500 nM
8 | Fc1cnc2c(c1)ncn2Cc1ccc2nc(N[C@@H]3CCCC[C@H]3Cl)sc2c1 [Example 198, N-((1R,2R)-2-chlorocyclohexyl)-6-((6-fluoro-3H-imidazo[4,5-b]pyridin-3-yl)methyl)benzo[d]thiazol-2-amine] |  |  |  |  |  | 50 to 400 nM | ≤ 5 nM | B (0.01<B≤0.02) | 100 to 500 nM | ≤ 50 nM
9 | OC1CCN(c2ccn3c(Cc4ccc5nc(N[C@@H]6CCCC[C@H]6O)sc5c4)cnc3c2)CC1 [Example 199, 1-(3-((2-(((1R,2R)-2-hydroxycyclohexyl)amino)benzo[d]thiazol-6-yl)methyl)imidazo[1,2-a]pyridin-7-yl)piperidin-4-ol] |  |  |  |  |  | > 1500 nM | 5 to 20 nM | A (A≤0.01) | > 2000 nM | > 2000 nM
10 | CC(=O)c1ccn2c(Cc3ccc4nc(N[C@@H]5CCCC[C@H]5O)sc4c3)cnc2c1 [Example 200, 1-(3-((2-(((1R,2R)-2-hydroxycyclohexyl)amino)benzo[d]thiazol-6-yl)methyl)imidazo[1,2-a]pyridin-7-yl)ethanone] |  |  |  |  |  | 50 to 400 nM | 5 to 20 nM | A (A≤0.01) | 500 to 2000 nM | 50 to 500 nM
11 | CC(O)c1ccn2c(Cc3ccc4nc(N[C@@H]5CCCC[C@H]5O)sc4c3)cnc2c1 (stereo partly drawn) [Example 201, (1R,2R)-2-((6-((7-(1-hydroxyethyl)imidazo[1,2-a]pyridin-3-yl)methyl)benzo[d]thiazol-2-yl)amino)cyclohexanol] |  |  |  |  |  | > 1500 nM | 20 to 50 nM | A (A≤0.01) | 500 to 2000 nM | 500 to 2000 nM
12 | CC(=NO)c1ccn2c(Cc3ccc4nc(N[C@@H]5CCCC[C@H]5O)sc4c3)cnc2c1 [Example 202, 1-(3-((2-(((1R,2R)-2-hydroxycyclohexyl)amino)benzo[d]thiazol-6-yl)methyl)imidazo[1,2-a]pyridin-7-yl)ethanone oxime] |  |  |  |  |  | 50 to 400 nM | 5 to 20 nM | A (A≤0.01) | 100 to 500 nM | 50 to 500 nM
13 | O[C@@H]1CCCC[C@H]1Nc1nc2ccc(Cn3cnc4cc(Br)cc(F)c43)cc2s1 [Example 203, (1R,2R)-2-((6-((5-bromo-7-fluoro-1H-benzo[d]imidazol-1-yl)methyl)benzo[d]thiazol-2-yl)amino)cyclohexanol] |  |  |  |  |  | 50 to 400 nM | 5 to 20 nM | A (A≤0.01) | ≤ 100 nM | 50 to 500 nM
14 | CON=C(C)c1ccn2c(Cc3ccc4nc(N[C@@H]5CCCC[C@H]5O)sc4c3)cnc2c1 [Example 204, 1-(3-((2-(((1R,2R)-2-hydroxycyclohexyl)amino)benzo[d]thiazol-6-yl)methyl)imidazo[1,2-a]pyridin-7-yl)ethanone O-methyl oxime] |  |  |  |  |  | 50 to 400 nM | 5 to 20 nM | A (A≤0.01) | 100 to 500 nM | 50 to 500 nM
15 | O[C@@H]1CCCC[C@H]1Nc1nc2ccc(Cc3cnc4[nH]c5ccccc5n34)cc2s1 [Example 205, (1R,2R)-2-((6-((9H-benzo[d]imidazo[1,2-a]imidazol-3-yl)methyl)benzo[d]thiazol-2-yl)amino)cyclohexanol] |  |  |  |  |  | 400 to 1500 nM | 5 to 20 nM | B (0.01<B≤0.02) | 500 to 2000 nM | 50 to 500 nM
16 | N#Cc1cc(F)c2c(c1)ncn2Cc1ccc2nc(N[C@@H]3CCCC[C@H]3O)sc2c1 [Example 206, 7-fluoro-1-((2-(((1R,2R)-2-hydroxycyclohexyl)amino)benzo[d]thiazol-6-yl)methyl)-1H-benzo[d]imidazole-5-carbonitrile] |  |  |  |  |  | 50 to 400 nM | 5 to 20 nM | A (A≤0.01) | 100 to 500 nM | 50 to 500 nM
17 | C=Cc1cc(F)c2c(c1)ncn2Cc1ccc2nc(N[C@@H]3CCCC[C@H]3O)sc2c1 [Example 207, (1R,2R)-2-((6-((7-fluoro-5-vinyl-1H-benzo[d]imidazol-1-yl)methyl)benzo[d]thiazol-2-yl)amino)cyclohexanol] |  |  |  |  |  | ≤ 50 nM | 5 to 20 nM | B (0.01<B≤0.02) | ≤ 100 nM | ≤ 50 nM
18 | O[C@@H]1CCCC[C@H]1Nc1nc2ccc(Cn3cnc4cc(C5=CCOCC5)cc(F)c43)cc2s1 [Example 208, (1R,2R)-2-((6-((5-(3,6-dihydro-2H-pyran-4-yl)-7-fluoro-1H-benzo[d]imidazol-1-yl)methyl)benzo[d]thiazol-2-yl)amino)cyclohexanol] |  |  |  |  |  | ≤ 50 nM | ≤ 5 nM | B (0.01<B≤0.02) | ≤ 100 nM | ≤ 50 nM
19 | O[C@@H]1CCCC[C@H]1Nc1nc2ccc(Cn3cnc4cc(N5CCOCC5)ccc43)cc2s1 [Example 209, (1R,2R)-2-((6-((5-morpholino-1H-benzo[d]imidazol-1-yl)methyl)benzo[d]thiazol-2-yl)amino)cyclohexanol] |  |  |  |  |  | 50 to 400 nM | 5 to 20 nM | A (A≤0.01) | 100 to 500 nM | 50 to 500 nM
